The record followed here is patent US12565501B2, “Muscarinic acetylcholine M1 receptor antagonists” (Contineum Therapeutics, Inc., priority 2019, dated 2026).

The assay addresses T1, human M1 receptor (Homo sapiens, UniProt P11229).
T1 sequence (P11229 1-460): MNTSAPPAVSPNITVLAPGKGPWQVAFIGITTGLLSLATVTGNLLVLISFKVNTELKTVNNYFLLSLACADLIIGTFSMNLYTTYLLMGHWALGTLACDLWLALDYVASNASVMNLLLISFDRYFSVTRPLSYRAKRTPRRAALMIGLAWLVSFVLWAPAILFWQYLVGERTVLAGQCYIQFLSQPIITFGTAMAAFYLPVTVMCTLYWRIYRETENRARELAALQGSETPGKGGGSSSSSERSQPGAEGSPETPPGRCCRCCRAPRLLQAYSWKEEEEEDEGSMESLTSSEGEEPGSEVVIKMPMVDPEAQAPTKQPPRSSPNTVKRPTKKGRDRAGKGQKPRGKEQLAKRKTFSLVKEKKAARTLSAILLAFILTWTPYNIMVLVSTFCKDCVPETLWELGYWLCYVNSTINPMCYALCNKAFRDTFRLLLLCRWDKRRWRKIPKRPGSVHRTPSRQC
The assay is described as follows: In vitro functional assay of muscarinic acetylcholine receptor activity (aequorin calcium flux, reversal of EC80 acetylcholine response). The note with it: CHO-K1 cells stably expressing human M1 receptor with aequorin; acetylcholine at EC80; calcium flux (luminescence); read-out: M1 IC50. The format is cell-based. The method, boiled down:
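CHO-K1 cells expressing human M1 and aequorin, loaded with 5 μM coelenterazine for 4 h, preincubated with compound 30 min at room temperature, then challenged with EC80 acetylcholine.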
(In general: Calcium flux is commonly read through the fluorescence of an indicator in the cells.)

SMILES strings stand for the structures. pIC50: −log10 of the molar value. Where only a bound is given, the exact number is not on record here.

Consider `N#Cc1ccc(N2C3CCC2CN(C(=O)CNC2(c4ccc(F)c(F)c4)CC2)C3)nc1` [Example 60, 6-(3-((1-(3,4-difluorophenyl)cyclopropyl)glycyl)-3,8-diazabicyclo[3.2.1]octan-8-yl)nicotinonitrile], for which the pIC50 (usually the negative decadic logarithm of the IC50, by convention in mol/L) was 7.00 to 8.00. Regarding `N#Cc1ccc(N2C3CCC2CN(C(=O)CNC2(c4ccccc4F)CC2)C3)nc1` [Example 61, 6-(3-((1-(2-fluorophenyl)cyclopropyl)glycyl)-3,8-diazabicyclo[3.2.1]octan-8-yl)nicotinonitrile], the pIC50 is 6.00 to 7.00.

In the case of `N#Cc1ccc(N2C3CCC2CN(C(=O)CNC2(c4cccc(C#N)c4)CC2)C3)nc1` [Example 62, 6-(3-((1-(3-cyanophenyl)cyclopropyl)glycyl)-3,8-diazabicyclo[3.2.1]octan-8-yl)nicotinonitrile], the pIC50 was 6.00 to 7.00. For `N#Cc1ccc(N2C3CCC2CN(C(=O)CNC2(c4ccccn4)CC2)C3)nc1` [Example 63, 6-(3-((1-(pyridin-2-yl)cyclopropyl)glycyl)-3,8-diazabicyclo[3.2.1]octan-8-yl)nicotinonitrile], the negative-log IC50 (pIC50) was 5.00 to 6.00. Regarding `N#Cc1ccc(N2C3CCC2CN(C(=O)CNC2(c4cccnn4)CC2)C3)nc1` [Example 64, 6-(3-((1-(pyridazin-3-yl)cyclopropyl)glycyl)-3,8-diazabicyclo[3.2.1]octan-8-yl)nicotinonitrile], the pIC50 is 6.00 to 7.00.

For the molecule `COc1ccccc1[C@H](C)NCC(=O)N1CC2CCC(C1)N2c1ccc(C#N)cn1` [Example 65, 6-(3-(((S)-1-(2-methoxyphenyl)ethyl)glycyl)-3,8-diazabicyclo[3.2.1]octan-8-yl)nicotinonitrile], the pIC50 is > 8.00.

For `COc1cc([C@H](C)NCC(=O)N2CC3CCC(C2)N3c2ccc(C#N)cn2)ccc1F` [Example 66, 6-(3-(((S)-1-(4-fluoro-3-methoxyphenyl)ethyl)glycyl)-3,8-diazabicyclo[3.2.1]octan-8-yl)nicotinonitrile], the negative logarithm of the IC50 (pIC50) was > 8.00.

`COc1ccc(F)c([C@H](C)NCC(=O)N2CC3CCC(C2)N3c2ccc(C#N)cn2)c1` [Example 67, 6-(3-(((S)-1-(2-fluoro-5-methoxyphenyl)ethyl)glycyl)-3,8-diazabicyclo[3.2.1]octan-8-yl)nicotinonitrile]: the negative-log IC50 (pIC50) is > 8.00.

On to `C[C@H](NCC(=O)N1C[C@H]2CC[C@@H](C1)N2c1ccc(C#N)cn1)c1cccc2c1OC(F)(F)O2` [Example 68, 6-(3-(((S)-1-(2,2-difluorobcnzo[d][1,3]dioxol-4-yl)ethyl)glycyl)-3,8-diazabicyclo[3.2.1]octan-8-yl)nicotinonitrile], for which the pIC50 was > 8.00. `N#Cc1ccc(N2C3CCC2CN(C(=O)CNC2(c4ccc(F)cn4)CC2)C3)nc1` [Example 69, 6-(3-((1-(5-fluoropyridin-2-yl)cyclopropyl)glycyl)-3,8-diazabicyclo[3.2.1]octan-8-yl)nicotinonitrile]: the pIC50 is 6.00 to 7.00.

For the molecule `N#Cc1ccc(N2C3CCC2CN(C(=O)CNC2(c4cccc(F)c4F)CC2)C3)nc1` [Example 70, 6-(3-((1-(2,3-difluorophenyl)cyclopropyl)glycyl)-3,8-diazabicyclo[3.2.1]octan-8-yl)nicotinonitrile], the negative-log IC50 (pIC50) was 6.00 to 7.00. For the molecule `N#Cc1ccc(N2C3CCC2CN(C(=O)CNC2(c4cc(F)ccc4F)CC2)C3)nc1` [Example 71, 6-(3-((1-(2,5-difluorophenyl)cyclopropyl)glycyl)-3,8-diazabicyclo[3.2.1]octan-8-yl)nicotinonitrile], the negative-log IC50 (pIC50) is 6.00 to 7.00. With `N#Cc1ccc(N2C3CCC2CN(C(=O)CNC2(c4c(F)cccc4F)CC2)C3)nc1` [Example 72, 6-(3-((1-(2,6-difluorophenyl)cyclopropyl)glycyl)-3,8-diazabicyclo[3.2.1]octan-8-yl)nicotinonitrile], the pIC50 is 6.00 to 7.00.

Consider `COc1cc(C2(NCC(=O)N3CC4CCC(C3)N4c3ccc(C#N)cn3)CC2)ccn1` [Example 73, 6-(3-((1-(2-methoxypyridin-4-yl)cyclopropyl)glycyl)-3,8-diazabicyclo[3.2.1]octan-8-yl)nicotinonitrile], for which the pIC50 was 7.00 to 8.00. For the molecule `COc1cc(C2(NCC(=O)N3CC4CCC(C3)N4c3ccc(C#N)cn3)CC2)c(F)cn1` [Example 74, 6-(3-((1-(5-fluoro-2-methoxypyridin-4-yl)cyclopropyl)glycyl)-3,8-diazabicyclo[3.2.1]octan-8-yl)nicotinonitrile], the pIC50 was 7.00 to 8.00. As to `COc1ccc(F)cc1C1(NCC(=O)N2CC3CCC(C2)N3c2ccc(C#N)cn2)CC1` [Example 76, 6-(3-((1-(5-fluoro-2-methoxyphenyl)cyclopropyl)glycyl)-3,8-diazabicyclo[3.2.1]octan-8-yl)nicotinonitrile], the pIC50 is > 8.00. Under `COc1c(F)cccc1C1(NCC(=O)N2CC3CCC(C2)N3c2ccc(C#N)cn2)CC1` [Example 77, 6-(3-((1-(3-fluoro-2-methoxyphenyl)cyclopropyl)glycyl)-3,8-diazabicyclo[3.2.1]octan-8-yl)nicotinonitrile] stands > 8.00. On to `N#Cc1ccc(N2C3COCC2CN(C(=O)CNC2(c4ccc(F)cc4F)CC2)C3)nc1` [Example 78, 6-(7-((1-(2,4-difluorophenyl)cyclopropyl)glycyl)-3-oxa-7,9-diazabicyclo[3.3.1]nonan-9-yl)nicotinonitrile], for which the negative logarithm of the IC50 (pIC50) was 6.00 to 7.00. For the molecule `N#Cc1ccc(N2C3CC2CN(C(=O)CNC2(c4ccc(F)cc4F)CC2)C3)nc1` [Example 79, 6-(3-((1-(2,4-difluorophenyl)cyclopropyl)glycyl)-3,6-diazabicyclo[3.1.1]heptan-6-yl)nicotinonitrile], the negative-log IC50 (pIC50) is 5.00 to 6.00. Consider `N#Cc1ccc(N2C[C@H]3C[C@@H]2CN3C(=O)CNC2(c3ccc(F)cc3F)CC2)nc1` [Example 80, 6-((1R,4R)-5-((1-(2,4-difluorophenyl)cyclopropyl)glycyl)-2,5-diazabicyclo[2.2.1]heptan-2-yl)nicotinonitrile], for which the pIC50 was < 6.00.

Turning to `N#Cc1ccc(N2C[C@H]3CC[C@@H]2CN3C(=O)CNC2(c3ccc(F)cc3F)CC2)nc1` [Example 81, 6-((1R,4R)-5-((1-(2,4-difluorophenyl)cyclopropyl)glycyl)-2,5-diazabicyclo[2.2.2]octan-2-yl)nicotinonitrile], the pIC50 is < 6.00. With `N#Cc1ccc(N2C[C@@H]3C[C@H]2CN3C(=O)CNC2(c3ccc(F)cc3F)CC2)nc1` [Example 82, 6-((1S,4S)-5-((1-(2,4-difluorophenyl)cyclopropyl)glycyl)-2,5-diazabicyclo[2.2.1]heptan-2-yl)nicotinonitrile], the negative logarithm of the IC50 (pIC50) was < 6.00.

Turning to `N#Cc1ccc(N2C[C@@H]3CC[C@H]2CN3C(=O)CNC2(c3ccc(F)cc3F)CC2)nc1` [Example 83, 6-((1S,4S)-5-((1-(2,4-difluorophenyl)cyclopropyl)glycyl)-2,5-diazabicyclo[2.2.2]octan-2-yl)nicotinonitrile], the pIC50 is 5.00 to 6.00. In the case of `N#Cc1cc(N2C3CCC2CN(C(=O)CNC2(c4ccc(F)cc4F)CC2)C3)ccn1` [Example 84, 4-(3-((1-(2,4-difluorophenyl)cyclopropyl)glycyl)-3,8-diazabicyclo[3.2.1]octan-8-yl)picolinonitrile], the pIC50 was 6.00 to 7.00. For the molecule `N#Cc1ccc(N2C3CCC2CN(C(=O)CNC2(c4ccc(F)cc4F)CC2)C3)cc1` [Example 85, 4-(3-((1-(2,4-difluorophenyl)cyclopropyl)glycyl)-3,8-diazabicyclo[3.2.1]octan-8-yl)benzonitrile], the negative-log IC50 (pIC50) was 7.00 to 8.00.

As to `Cc1ccc(N2C3CCC2CN(C(=O)CNC2(c4ccc(F)cc4F)CC2)C3)nn1` [Example 86, 2-((1-(2,4-difluorophenyl)cyclopropyl)amino)-1-(8-(6-methylpyridazin-3-yl)-3,8-diazabicyclo[3.2.1]octan-3-yl)ethan-1-one], the negative logarithm of the IC50 (pIC50) was 5.00 to 6.00. Turning to `COc1cccc([C@H](C)NCC(=O)N2CC3CCC(C2)N3c2ccc(C#N)cn2)c1` [Example 92, 6-(3-(((S)-1-(3-methoxyphenyl)ethyl)glycyl)-3,8-diazabicyclo[3.2.1]octan-8-yl)nicotinonitrile], the pIC50 is > 8.00. With `COc1cc([C@H](C)NCC(=O)N2C[C@H]3CC[C@@H](C2)N3c2ccc(C#N)cn2)ccn1` [Example 93, 6-(3-(((S)-1-(2-methoxypyridin-4-yl)ethyl)glycyl)-3,8-diazabicyclo[3.2.1]octan-8-yl)nicotinonitrile], the negative-log IC50 (pIC50) was > 8.00. `N#Cc1ccc(N2C3CCC2CN(C(=O)CNC2(c4ccccc4)CC2)C3)nc1` [Example 94, 6-(3-((1-phenylcyclopropyl)glycyl)-3,8-diazabicyclo[3.2.1]octan-8-yl)nicotinonitrile]: the pIC50 was 5.00 to 6.00. As for `N#Cc1ccc(N2C3CCC2CN(C(=O)CNC2(c4cccc(F)c4)CC2)C3)nc1` [Example 95, 6-(3-((1-(3-fluorophenyl)cyclopropyl)glycyl)-3,8-diazabicyclo[3.2.1]octan-8-yl)nicotinonitrile], the pIC50 was 7.00 to 8.00. With `N#Cc1ccc(N2C3CCC2CN(C(=O)CNC2(c4ccc(F)cc4)CC2)C3)nc1` [Example 96, 6-(3-((1-(4-fluorophenyl)cyclopropyl)glycyl)-3,8-diaabicyclo[3.2.1]octan-8-yl)nicotinonitrile], the pIC50 was 6.00 to 7.00.

With `COc1ccccc1C1(NCC(=O)N2CC3CCC(C2)N3c2ccc(C#N)cn2)CC1` [Example 97, 6-(3-((1-(2-methoxyphenyl)cyclopropyl)glycyl)-3,8-diazabicyclo[3.2.1]octan-8-yl)nicotinonitrile], the pIC50 was > 8.00.
